# Laboratory results published in patent US6319955A, “Use of MEK1 inhibitors as protective agents against damage due to ischemia” (priority 2000, dated 2001).
# Columns and labels:
# [1] = regional cerebral blood flow by Laser-Doppler flowmetry, PD98059; format: in vivo, mouse; conditions: 200 μM PD98059, n = 5, % of baseline, means ±SD
# From the text: Data are presented as means ±SD. Therefore, the decrease in ERK1/2 phosphorylation seen with PD98059 was not due to higher blood flow.
# [2] = tested on: neurological deficits caused by ischemia; assay: neurological grading after 2 hours of MCA occlusion and reperfusion; format: in vivo, mouse (SV-129); conditions: three days after 2 hours MCA occlusion and reperfusion; mean±SEM; vehicle 2.2±0.3; P<0.05
# Description: Data are presented as mean ±SEM Data were analyzed by Student-t test or one-way ANOVA followed by Bonferroni's post hoc test.
# ERK1/2 [3] = assay: immunohistochemistry of phosphorylated ERK1/2 in brain slices after ischemia and reperfusion (PD98059 i.c.v.); format: in vivo, mouse (SV-129); conditions: 2 μl of 200 μM i.c.v. 30 min before ischemia; 120 min ischemia, 3 min reperfusion
# [4] = arterial blood pH, pCO2 and pO2, PD98059; format: in vivo, mouse
# Description: Partial oxygen tension (pO2), partial carbon dioxide tension (pCO2), and blood pH were determined in the presence or absence of 200 μM PD98059, 1 hour after the induction of ischemia under 1% halothane anesthesia (Table 3).
# MEK1 = conditions: Favata et al., 1998, DeSilva et al.; cited from earlier work
# [5] = mouse, in vivo
# [6] = mean arterial blood pressure, PD98059; format: in vivo, mouse
# Description: Mean arterial blood pressure (MABP) was determined in the presence or absence of 200 μM PD98059 10 minutes before and 1 hour after induction of ischemia, and 30 minutes after reperfusion under 1% halothane anesthesia (Table 2). Data are presented as means±SD. MABP was determined to be unaltered.
# p38 MAP kinase = conditions: Cohen, Trends Cell Biol. 7:353, 1997; cited from earlier work
# SAPKs/JNKs = conditions: Cohen, Trends Cell Biol. 7:353, 1997; cited from earlier work
# ERK1/2 [7] = conditions: 5 mM glutamate
# [8] = compared with native tPA; cited from earlier work
compound,measurement,setting,value
"COc1cccc(-c2cc(=O)c3ccccc3o2)c1N [PD98059, 2-(2-amino-3-methoxyphenyl)-4-oxo-4H-[1]benzopyran]",cell injury,"HT22 cells; PD98059 50 μM, 9 hours after 5 mM glutamate",partially attenuated cell injury
same,protective effects,"HT22 cells; PD98059 50 μM, 24 hours after 5 mM glutamate",did not sustain for 24 hours
same,RCBF (after MCA),"[1]; 30 min reperfusion, DMSO 102.5% ± 6.8",94.9% ± 8.9
same,RCBF (during MCA),[1]; DMSO 25.2% ± 5.7,15.9% ± 1.7
same,neurological grading,[2],0.71±0.29
same,phosphorylation of ERK1/2 in the middle cerebral artery territory,ERK1/2 [3],reduced
same,blood pH,"[4]; 200 μM PD98059, n = 5, 1 hour after induction of ischemia, means ±SD, DMSO 7.32 ± 0.06",7.32 ± 0.07
same,PCO2,"[4]; 200 μM PD98059, n = 5, 1 hour after induction of ischemia, means ±SD, DMSO 48.8 ± 5.1, in mmHg (unit assumed)",49.9 ± 3.5
same,PO2,"[4]; 200 μM PD98059, n = 5, 1 hour after induction of ischemia, means ±SD, DMSO 155.3 ± 13.8, in mmHg (unit assumed)",139.1 ± 21.6
same,"pO2, pCO2, and blood pH, in words",[4]; 200 μM PD98059 vs DMSO,did not differ between the two groups
same,"inhibition of active / inactive MEK1, in words",MEK1,cannot efficiently inhibit MEK1 once it is activated
same,body temperature,[5],34.6±0.8 °C
same,temporal muscle temperature,[5],35.5±0.1 °C
same,MABP (before),"[6]; 200 μM PD98059, n = 5, 10 minutes before ischemia, means±SD, DMSO 80.7 ± 7.5, in mmHg (unit assumed)",86.4 ± 10.9
same,MABP (after),"[6]; 200 μM PD98059, n = 5, 30 minutes after reperfusion, means±SD, DMSO 82.8 ± 13.5",86.0 ± 12.3
same,MABP (during),"[6]; 200 μM PD98059, n = 5, 1 hour after induction of ischemia, means±SD, DMSO 82.3 ± 2.1, in mmHg (unit assumed)",81.8 ± 4.1
same,"MABP, in words",[6]; 200 μM PD98059 vs DMSO,unaltered
C[S+]([O-])c1ccc(-c2nc(-c3ccncc3)c(-c3ccc(F)cc3)[nH]2)cc1 (centres unmarked) [SB203580],inhibitor of p38 MAP kinase (concentration),p38 MAP kinase,1 to 2 µM
same,inhibitor of SAPKs/JNKs (concentration),SAPKs/JNKs,> 10 µM
N[C@@H](CCC(=O)O)C(=O)O [glutamate],completion of cell injury after addition of glutamate,HT22 cells; 5 mM glutamate (FIG. 5A),up to 10 hours
same,onset of cell injury after addition of glutamate,HT22 cells; 5 mM glutamate (FIG. 5A),8 h
same,time of further increase of ERK1/2 phosphorylation after glutamate addition,ERK1/2 [7],7 to 8 h
conjugation of tPA to polyethylene glycol: conjugation of tPA to polyethylene glycol,"clearance rate, in words",[8],reduce the clearance rate of tPA
